Assay results from ChEMBL document CHEMBL1124450, “Identification of structural requirements for analogues of atrial natriuretic peptide (ANP) to discriminate between ANP receptor subtypes” (J Med Chem, 1989).
Residues, ends and D or L forms follow the SMILES beside them.

Tests used:
[1] = Ratio of IC50 of guanylate cyclase coupled receptor binding and non-guanylate cyclase coupled binding
[2] = Inhibitory activity against non-guanylate cyclase receptor binding site in rabbit lung by using [125I]-ANP-(103-126); set-up: species or system Oryctolagus cuniculus
[3] = biological target: T1, Atrial natriuretic peptide receptor (Homo sapiens, UniProt P20594+P16066+P17342); assay: Inhibitory activity against guanylate cyclase coupled receptor binding site in rabbit lung by using [125I]-ANP-(103-126); format: protein assay, Oryctolagus cuniculus; conditions: target entry is the homologue from another species
T1 sequence (P20594 whole entry): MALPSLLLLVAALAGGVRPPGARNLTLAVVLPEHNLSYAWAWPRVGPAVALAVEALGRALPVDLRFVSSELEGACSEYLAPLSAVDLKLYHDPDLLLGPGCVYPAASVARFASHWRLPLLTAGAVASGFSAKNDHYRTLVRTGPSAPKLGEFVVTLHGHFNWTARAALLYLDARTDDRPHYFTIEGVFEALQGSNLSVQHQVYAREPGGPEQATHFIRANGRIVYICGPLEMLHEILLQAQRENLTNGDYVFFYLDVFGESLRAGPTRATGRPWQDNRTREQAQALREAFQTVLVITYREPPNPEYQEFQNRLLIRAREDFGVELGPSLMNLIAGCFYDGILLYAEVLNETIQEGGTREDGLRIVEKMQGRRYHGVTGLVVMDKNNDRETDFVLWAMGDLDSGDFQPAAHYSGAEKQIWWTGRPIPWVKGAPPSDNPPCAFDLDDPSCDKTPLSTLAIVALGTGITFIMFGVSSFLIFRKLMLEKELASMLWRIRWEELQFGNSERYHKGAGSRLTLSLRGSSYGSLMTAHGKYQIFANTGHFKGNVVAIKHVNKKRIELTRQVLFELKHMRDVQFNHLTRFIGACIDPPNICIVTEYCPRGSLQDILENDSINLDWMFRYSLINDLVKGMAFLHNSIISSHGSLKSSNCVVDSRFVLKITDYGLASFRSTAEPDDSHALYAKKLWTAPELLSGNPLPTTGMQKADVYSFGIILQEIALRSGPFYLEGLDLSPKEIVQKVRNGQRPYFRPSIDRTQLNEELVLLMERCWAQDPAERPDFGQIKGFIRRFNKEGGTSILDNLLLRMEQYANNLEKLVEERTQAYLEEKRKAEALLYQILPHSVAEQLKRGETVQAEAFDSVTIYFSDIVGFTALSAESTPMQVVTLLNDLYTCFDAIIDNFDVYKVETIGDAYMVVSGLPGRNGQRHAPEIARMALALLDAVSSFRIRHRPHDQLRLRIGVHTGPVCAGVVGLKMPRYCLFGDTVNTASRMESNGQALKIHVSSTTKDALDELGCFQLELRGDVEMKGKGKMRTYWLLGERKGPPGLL
T1 sequence (P16066 whole entry): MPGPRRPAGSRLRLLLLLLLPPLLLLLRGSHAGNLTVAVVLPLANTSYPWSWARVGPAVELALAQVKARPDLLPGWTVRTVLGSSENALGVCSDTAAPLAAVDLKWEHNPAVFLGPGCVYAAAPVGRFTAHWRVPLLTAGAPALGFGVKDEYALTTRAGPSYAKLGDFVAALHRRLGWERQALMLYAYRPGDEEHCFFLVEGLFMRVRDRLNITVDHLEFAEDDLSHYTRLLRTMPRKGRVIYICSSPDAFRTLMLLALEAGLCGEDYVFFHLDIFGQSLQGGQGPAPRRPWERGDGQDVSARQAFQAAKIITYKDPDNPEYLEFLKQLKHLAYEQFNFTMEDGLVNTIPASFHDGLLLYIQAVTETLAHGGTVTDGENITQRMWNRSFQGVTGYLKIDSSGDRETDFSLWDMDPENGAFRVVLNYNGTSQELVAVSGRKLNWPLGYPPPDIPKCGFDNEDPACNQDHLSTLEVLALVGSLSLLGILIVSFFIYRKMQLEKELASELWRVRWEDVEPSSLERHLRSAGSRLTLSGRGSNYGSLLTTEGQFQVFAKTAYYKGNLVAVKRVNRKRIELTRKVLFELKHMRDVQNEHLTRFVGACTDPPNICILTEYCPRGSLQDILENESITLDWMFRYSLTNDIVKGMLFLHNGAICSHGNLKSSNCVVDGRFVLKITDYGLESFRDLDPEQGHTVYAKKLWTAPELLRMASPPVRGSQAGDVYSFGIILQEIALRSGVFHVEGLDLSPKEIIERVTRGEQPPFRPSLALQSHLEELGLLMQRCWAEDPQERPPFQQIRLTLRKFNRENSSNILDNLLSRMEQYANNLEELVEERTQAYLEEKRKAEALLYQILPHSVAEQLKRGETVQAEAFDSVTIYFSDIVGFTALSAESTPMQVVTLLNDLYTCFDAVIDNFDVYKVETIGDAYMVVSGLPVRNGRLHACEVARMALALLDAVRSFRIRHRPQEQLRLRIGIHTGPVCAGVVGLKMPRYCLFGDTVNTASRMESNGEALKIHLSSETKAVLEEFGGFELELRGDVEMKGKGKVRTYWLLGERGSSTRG
T1 sequence (P17342 whole entry): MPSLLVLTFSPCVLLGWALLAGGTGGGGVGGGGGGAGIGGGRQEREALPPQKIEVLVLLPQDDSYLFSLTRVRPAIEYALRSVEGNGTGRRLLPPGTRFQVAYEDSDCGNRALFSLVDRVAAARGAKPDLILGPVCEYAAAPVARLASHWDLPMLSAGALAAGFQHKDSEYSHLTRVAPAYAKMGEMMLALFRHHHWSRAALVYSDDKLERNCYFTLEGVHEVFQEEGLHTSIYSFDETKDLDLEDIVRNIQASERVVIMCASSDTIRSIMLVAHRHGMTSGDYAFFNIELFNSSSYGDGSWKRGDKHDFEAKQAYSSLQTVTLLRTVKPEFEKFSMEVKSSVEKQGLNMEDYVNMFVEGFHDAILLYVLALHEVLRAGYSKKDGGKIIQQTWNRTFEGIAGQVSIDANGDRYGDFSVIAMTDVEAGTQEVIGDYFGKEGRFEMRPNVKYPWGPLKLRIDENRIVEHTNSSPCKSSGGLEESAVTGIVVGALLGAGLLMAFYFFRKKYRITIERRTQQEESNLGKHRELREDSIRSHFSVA

Structure (SMILES): CC[C@H](C)[C@@H]1NC(=O)[C@H](CCCN=C(N)N)NC(=O)[C@H](CC(=O)O)NC(=O)[C@H]([C@@H](C)CC)NC(=O)[C@H](CCCN=C(N)N)NC(=O)CNC(=O)[C@@H](NC(=O)[C@H](CO)NC(=O)[C@@H](N)CO)CSSC[C@H](C(=O)N[C@@H](CC(N)=O)C(=O)N[C@@H](CO)C(=O)N[C@@H](Cc2ccccc2)C(=O)N[C@@H](CCCN=C(N)N)C(N)=O)NC(=O)CNC(=O)[C@H](CC(C)C)NC(=O)CNC(=O)[C@H](CO)NC(=O)CNC1=O
- Ratio [1]: > 1000
- IC50 [2]: 0.1 nM
- IC50 [3]: > 100 nM

Structure (SMILES): CC[C@H](C)[C@H](NC(=O)[C@H](CCCN=C(N)N)NC(=O)[C@H](CC(=O)O)NC(=O)[C@@H](NC(=O)[C@H](CCCN=C(N)N)NC(=O)CNC(=O)CNC(=O)[C@H](Cc1ccccc1)NC(=O)[C@@H](N)CS)[C@@H](C)CC)C(=O)NCC(N)=O (H-CFGGRIDRIG-NH2)
- Ratio [1]: > 357
- IC50 [2]: 0.28 nM
- IC50 [3]: > 100 nM

Structure (SMILES): CC[C@H](C)[C@H](NC(=O)[C@H](CCCN=C(N)N)NC(=O)[C@H](CC(=O)O)NC(=O)[C@@H](NC(=O)[C@H](CCCN=C(N)N)NC(=O)CNC(=O)CNC(=O)[C@H](Cc1ccccc1)NC(=O)[C@@H](N)CO)[C@@H](C)CC)C(=O)NCC(=O)N[C@@H](C)C(=O)N[C@@H](CCC(N)=O)C(=O)N[C@@H](CO)C(=O)NCC(=O)N[C@@H](CC(C)C)C(=O)NCC(=O)N[C@@H](CC(N)=O)C(=O)N[C@@H](CO)C(=O)N[C@@H](Cc1ccccc1)C(=O)N[C@@H](CCCN=C(N)N)C(=O)N[C@@H](Cc1ccc(O)cc1)C(=O)O (H-SFGGRIDRIGAQSGLGNSFRY-OH)
- Ratio [1]: > 285
- IC50 [2]: 0.35 nM
- IC50 [3]: > 100 nM

Structure (SMILES): CC(C)C[C@H](NC(=O)[C@@H](N)CO)C(=O)N[C@@H](CCCN=C(N)N)C(=O)N[C@@H](CCCN=C(N)N)C(=O)N[C@@H](CO)C(=O)N[C@@H](CO)C(=O)N[C@@H](CS)C(=O)N[C@@H](Cc1ccccc1)C(=O)NCC(=O)NCC(=O)N[C@@H](CCCN=C(N)N)C(=O)O (H-SLRRSSCFGGR-OH)
- IC50 [2]: > 100 nM
- IC50 [3]: > 100 nM

Structure (SMILES): CC[C@H](C)[C@@H]1NC(=O)[C@H](CCCN=C(N)N)NC(=O)[C@H](CC(=O)O)NC(=O)[C@H]([C@@H](C)CC)NC(=O)[C@H](CCCN=C(N)N)NC(=O)CNC(=O)CNC(=O)[C@H](Cc2ccccc2)NC(=O)[C@@H](NC(=O)[C@H](CO)NC(=O)[C@H](CO)NC(=O)[C@H](CCCN=C(N)N)NC(=O)[C@H](CCCN=C(N)N)NC(=O)[C@H](CC(C)C)NC(=O)[C@@H](N)CO)CSSC[C@@H](C(N)=O)NC(=O)[C@H](CCC(N)=O)NC(=O)[C@H](C)NC(=O)CNC1=O (HELM PEPTIDE1{S.L.R.R.S.S.C.F.G.G.R.I.D.R.I.G.A.Q.C.[am]}$PEPTIDE1,PEPTIDE1,7:R3-19:R3$$$V2.0)
- Ratio [1]: 312
- IC50 [2]: 0.16 nM
- IC50 [3]: 52 nM

Structure (SMILES): CC[C@H](C)[C@@H]1NC(=O)[C@H](CCCN=C(N)N)NC(=O)[C@H](CC(=O)O)NC(=O)[C@H]([C@@H](C)CC)NC(=O)[C@H](CCCN=C(N)N)NC(=O)CNC(=O)CNC(=O)[C@H](Cc2ccccc2)NC(=O)[C@@H](NC(=O)[C@H](CO)NC(=O)[C@@H](N)CO)CSSC[C@@H](C(=O)N[C@@H](CC(N)=O)C(=O)N[C@@H](CO)C(=O)O)NC(=O)CNC(=O)[C@H](CC(C)C)NC(=O)CNC(=O)[C@H](CO)NC(=O)[C@H](CCC(N)=O)NC(=O)[C@H](C)NC(=O)CNC1=O (HELM PEPTIDE1{S.S.C.F.G.G.R.I.D.R.I.G.A.Q.S.G.L.G.C.N.S}$PEPTIDE1,PEPTIDE1,3:R3-19:R3$$$V2.0)
- Ratio [1]: 46
- IC50 [2]: 0.78 nM
- IC50 [3]: 36 nM

Structure (SMILES): CC[C@H](C)[C@H](NC(=O)[C@H](CCCN=C(N)N)NC(=O)[C@H](CC(=O)O)NC(=O)[C@@H](NC(=O)[C@H](CCCN=C(N)N)NC(=O)CNC(C)=O)[C@@H](C)CC)C(=O)NCC(N)=O [GRIDRIG] (Ac-GRIDRIG-NH2)
- Ratio [1]: > 1.5
- IC50 [2]: 65 nM
- IC50 [3]: > 100 nM
